Data: paper PMC6155721, “Hair Growth Promoting and Anticancer Effects of p21-activated kinase 1 (PAK1) Inhibitors Isolated from Different Parts of Alpinia zerumbet” (Molecules : A Journal of Synthetic Chemistry and Natural …, 2017)
Values joined by “and” are separate entries in the source; they are usually repeats but may differ in a detail not shown here. Equal values may be shown once. Read-outs that look alike come from different tables or passages of the source.

What was measured:
A549 lung cancer cells = assay: Anticancer activity by MTT assay; assay type: cell-based; conditions: mean ± SE of six replications, read-out: IC50 (μM), anti-cancer activity against the A549 cell line
Method: The assay was performed as previously described. Lung cancer cells (A549) were seeded into a 96-well plate at a density of 1 × 10^4 cells/well, and cultured for 24 h before the compounds were added. The cells were incubated in a humidified atmosphere of 5% CO2 at 37 °C for 72 h. After treatment, 20 μL MTT solution (0.5 mg/mL) was added to each well, and the plates were incubated for 3 h. The medium was removed, and the formazan was dissolved in 200 μL of DMSO. After shaking the plate for 10 min, cell viability was assessed by measuring the absorbance at 490 nm using a microplate reader (Corona, Hitachinaka-ku, Ibaraki, Japan). DMSO was used as a blank. The corrected absorbance of sample was divided by the corrected absorbance of the control, and then multiplied by 100% to give the percentage cell viability.

[1] = tested on: human follicle dermal papilla cells (HFDPC); assay: Human follicle dermal papilla cell (HFDPC) proliferation, MTT assay; assay type: cell-based; conditions: for proliferation of HFDPC / Cell viability (%) / viability at 10 µM / viability at 50 µM / viability at 100 µM: four days incubation; for viability at 10 µM / viability at 50 µM / viability at 100 µM: Homo sapiens, 96 h
Method: Human follicle dermal papilla cell (HFDPC) (TOYOBO, Tokyo, Japan) proliferation was assayed as described by Nguyen et al.. Cells were cultured in growth medium containing 50 mL papilla cell growth medium (PCGM), 0.5 mL FCS, 0.5 mL BPE, 0.25 mL Cyp, and 0.25 mL ITT (51.5 mL total volume). Cell viability was evaluated using the thiazolyl blue tetrazolium bromide (MTT) assay. Cells were collected and diluted in medium containing D-MEM and 10% FBS at a cell density of 1 × 10^4 cells/mL. Then, cell suspension (200 μL) was transferred into a collagen-coated 96-well plate at a density of 2000 cells/well. After incubation for three days, 200 μL of the isolated compounds in DMEM was added. After four days of incubation, 100 μL of MTT solution in D-MEM (0.4 mg/mL) was added, and the mixture was incubated for 2 h. The untransformed MTT was removed, and 100 μL of 2-propanol was added to each well to dissolve the formazan crystals. The absorbance was read at 570 nm and 650 nm using a microplate reader. The cell viability was calculated from the readings, and represented as a percentage of the control value (cells treated with D-MEM only).

human PAK1 = human PAK1 (Homo sapiens, UniProt Q13153); assay: In vitro PAK1 inhibition, ADP-Glo kinase assay; assay type: biochemical; conditions: mean ± SE of six replications, read-out: IC50 (μM), in vitro PAK1 inhibitory activity
Method: PAK1 kinase activity was measured using the ADP-Glo™ kinase assay kit (Promega, Madison, WI, USA) according to manufacturer’s instructions. Briefly, human PAK1 (25 ng/reaction) was incubated with test compounds (5 μL) for 10 min. […] The reaction was terminated by adding 25 μL ADP-Glo™ reagent, followed by an incubation time of 40 min. The kinase detection reagent (50 μL) was added to the reaction mixture, and after 30 min of incubation, the luminescence was recorded by MTP-880Lab microplate reader (Corona, Ibaraki, Japan) with an integration time of 0.5 s per well. The percentage inhibition was calculated relative to the control kinase activity without any inhibitor.

[2] = 100 μM, percentage of control value
[3] = 10 μM, percentage of control value (cells treated with D-MEM only)

Sequence of human PAK1 (Q13153 whole entry): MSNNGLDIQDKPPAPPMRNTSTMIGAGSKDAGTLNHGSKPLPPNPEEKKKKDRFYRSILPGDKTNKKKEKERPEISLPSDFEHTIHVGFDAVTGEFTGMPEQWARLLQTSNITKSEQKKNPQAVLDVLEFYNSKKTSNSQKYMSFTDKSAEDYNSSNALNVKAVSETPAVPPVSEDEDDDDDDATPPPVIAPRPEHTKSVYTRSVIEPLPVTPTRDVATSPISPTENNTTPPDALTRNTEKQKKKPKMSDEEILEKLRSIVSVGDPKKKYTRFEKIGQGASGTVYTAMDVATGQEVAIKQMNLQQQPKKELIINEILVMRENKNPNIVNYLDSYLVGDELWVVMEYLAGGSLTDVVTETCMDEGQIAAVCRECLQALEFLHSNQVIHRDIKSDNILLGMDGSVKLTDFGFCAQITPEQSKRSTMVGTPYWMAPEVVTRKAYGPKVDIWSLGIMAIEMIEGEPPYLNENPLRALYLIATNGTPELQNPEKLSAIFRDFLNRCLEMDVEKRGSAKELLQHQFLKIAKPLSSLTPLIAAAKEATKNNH

IC50 (A549 lung cancer cells; Homo sapiens, A549, 72 h) | IC50 (A549 lung cancer cells; 72 h) | SMILES | proliferation of HFDPC / Cell viability (%) [1, 2] | viability at 10 µM [1, 3] | viability at 50 µM ([1]; percentage of control value) | viability at 100 µM [1, 2] | IC50 (human PAK1) | IC50 (A549 lung cancer cells; Homo sapiens, 72 h) | effect on hair cell proliferation ([1]; at around 50 μM or higher) | proliferation of HFDPC / Cell viability (%) [1, 3]
81.4 ± 1.9 µM | – | O=C(O)C1OC(Oc2c(-c3ccc(O)cc3)oc3cc(O)cc(O)c3c2=O)C(O)C(O)C1O [KOG, kaempferol-3-O-β-D-glucuronide] | ~180% | 118% | 158% | 181% | 39 µM and 39.3 µM | – | – | –
– | – | C=C1CC2CC(C)(C)C(C)(C)CN2CC1CCCCC/C=C/C (centres unmarked) [TMOQ, (E)-2,2,3,3-tetramethyl-8-methylene-7-(oct-6-en-1-yl)octahydro-1H-quinolizine] | – | 139% | 104% | 68.5% | 49 µM and ~50 µM and 49.3 µM | 90.8 ± 1.6 µM | did not significantly affect the hair cell proliferation | –
– | – | Nc1cc(N2CCCCC2)nc(N)[n+]1[O-] [Minoxidil, reference compound] | – | 116% | – | – | – | – | – | 119%
30 µM | 30.3 ± 2.9 µM | COc1cc(/C=C/C(=O)CC(=O)/C=C/c2ccc(O)c(OC)c2)ccc1O [Curcumin, reference compound] | – | – | – | – | – | – | – | –
67 µM | 67.1 ± 6 µM | C=C1CCC2C(C)(C)CCCC2(C)C1C/C=C(/C=O)CC=O (centres unmarked) [Labdadiene, 8(17),12-Labdadiene-15,16-dial] | ~226% | 133% | 197% | 227% | 52 µM and 52.1 µM | – | – | about 132%

SMILES | IC50 (A549 lung cancer cells; Homo sapiens, A549, 72 h) | IC50 (A549 lung cancer cells; 72 h) | proliferation of HFDPC / Cell viability (%) [1, 2] | viability at 10 µM [1, 3] | viability at 50 µM ([1]; percentage of control value) | viability at 100 µM [1, 2] | IC50 (human PAK1) | IC50 (A549 lung cancer cells; Homo sapiens, 72 h) | effect on hair cell proliferation ([1]; at around 50 μM or higher) | proliferation of HFDPC / Cell viability (%) [1, 3]
CO/C=C/C=C/C=C/C1C=CC(/C=C/C=C/C=C/OC)O1 (centres unmarked) [MTD] | 98.9 ± 9.3 µM | – | – | 165% | 190% | 113% | 59 µM and 58.6 µM | – | – | –
